What was measured:
GDC-0623 = compound: O=C(NOCCO)c1ccc2cncn2c1Nc1ccc(I)cc1F [GDC-0623]; test: absolute IC70 (antiproliferative, propidium iodide); higher = less potent; details: exposure time: 4 days
Experimental: (§1)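 Modified propidium iodide survival/proliferation assay in 294 human tumor cell lines (2D monolayer for solid tumors, suspension for hematologic lines) after 4 days of continuous exposure to 10 concentrations in half-log steps from 0.001 to 30 µM. Absolute IC70 was fitted by four-parameter nonlinear regression of T/C × 100 (%) values; 30 µM is the top dose.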

[1] = compound: CCNC(=O)C#Cc1ccc2c(C(=Nc3ccc(CN(C)C)cc3)c3ccccc3)c(O)[nH]c2c1; test: as above; details: exposure time: 4 days
Experimental: as §1

Test System	absolute IC70 (GDC-0623)	absolute IC70 [1]
HPAC	> 30 µM	0.12 µM
HPAF-II	0.079 µM	0.285 µM
HT-29	0.087 µM	0.392 µM
HT-115	0.0576 µM	0.0144 µM
HT-1080	0.279 µM	0.71 µM
HUP-T3	0.044 µM	0.291 µM
HUT-78	> 30 µM	0.072 µM
Hep-G2	16.5 µM	0.055 µM
Hs 729	> 30 µM	8.02 µM
IGROV-1	> 30 µM	1.87 µM
IM95	> 30 µM	12.2 µM
IM-9	0.015 µM	0.007 µM
JHH-6	> 30 µM	1.14 µM
JIMT-1	> 30 µM	1.9 µM
JURKAT	> 30 µM	2.33 µM
JURL-MK1	0.011 µM	0.149 µM
K-562	> 30 µM	2.82 µM
KCL-22	> 30 µM	0.25 µM
KG-1	25.1 µM	0.033 µM
KLE	> 30 µM	5.42 µM
KM12	15.1 µM	0.386 µM
KM20L2	0.0517 µM	0.186 µM
KM-H2	> 30 µM	2.77 µM
KU-19-19	0.022 µM	0.056 µM

Test System	absolute IC70 (GDC-0623)	absolute IC70 [1]
KYSE-70	> 30 µM	1.04 µM
KYSE-150	> 30 µM	2.82 µM
KYSE-180	> 30 µM	1 µM
KYSE-520	0.158 µM	0.525 µM
L-363	> 30 µM	0.692 µM
LEXFAL_2665	> 30 µM	0.223 µM
LEXFAM_2531	> 30 µM	0.026 µM
LIM2405	0.00596 µM	0.0316 µM
LIM2551	0.00368 µM	0.00749 µM
LIXFC_575	3.01 µM	0.654 µM
LN-229	0.102 µM	0.281 µM
LOU-NH91	> 30 µM	2.14 µM
LOVO	> 30 µM	3.69 µM
LP-1	> 30 µM	2.16 µM
LS174T	0.0723 µM	0.0404 µM
LXFA_289	> 30 µM	1.79 µM
LXFA_526	1.32 µM	0.739 µM
LXFA_586	> 30 µM	0.106 µM
LXFA_623	1.01 µM	0.96 µM
LXFA_629	> 30 µM	0.75 µM
LXFA_677	0.168 µM	0.269 µM
LXFA_737	> 30 µM	0.225 µM
LXFA_923	> 30 µM	24.4 µM
LXFA_983	18.5 µM	0.202 µM

Test System	absolute IC70 (GDC-0623)	absolute IC70 [1]
LXFA_1647	0.221 µM	0.248 µM
LXFE_66	> 30 µM	3.91 µM
LXFL_529	0.233 µM	0.329 µM
LXFL_1072	16.2 µM	0.481 µM
LXFL_1121	> 30 µM	0.743 µM
LXFL_1674	> 30 µM	1.05 µM
M059K	> 30 µM	1.15 µM
MAXF_401	0.73 µM	0.028 µM
MCF7	> 30 µM	0.281 µM
MCF 10A	0.048 µM	0.031 µM
MDA-MB-231	0.078 µM	0.12 µM
MDA-MB-453	> 30 µM	2.48 µM
MDA-MB-468	2.24 µM	0.347 µM
MDST8	0.00601 µM	0.0555 µM
MEC-1	> 30 µM	0.034 µM
MEG-01	0.008 µM	0.02 µM
MEXF_276	0.008 µM	0.038 µM
MEXF_394	0.004 µM	0.042 µM
MEXF_462	7.17 µM	0.025 µM
MEXF_520	5.4 µM	0.099 µM
MEXF_535	0.005 µM	0.099 µM
MEXF_622	0.04 µM	0.227 µM
MEXF_1341	0.026 µM	0.482 µM
MEXF_1539	0.003 µM	0.039 µM
